From US12173349B2, “Lung protease nanosensors and uses thereof” (Massachusetts Institute of Technology, priority 2018, dated 2024)
Entries after “also recorded” stand apart in the source; their conditions may differ. Where no end group is shown, it is not given here. [ ]: non-standard residue; d: D form. F+10 = not defined here; A+4 = not defined here; G+2 = not defined here; G+3 = not defined here

Key:
PA01 supernatant = experiment: cleavage of FRET-paired substrates by bacterial supernatant; format: biochemical, Pseudomonas aeruginosa; conditions: added to PA01 supernatant
Method: The specificity of LAS and ELA for P. aeruginosa cleavage was tested by collecting supernatants from PA01 or Staphylococcus aureus cultures and incubating them with FRET-paired substrates LAS-Q and ELA-Q in 384 well plates. […] To investigate whether the LAS and ELA substrates are also susceptible to cleavage by host proteases, each was incubated with recombinant mouse proteases.
Supernatant from PA01 and S. aureus were collected and added to substrates in 384 well plates and dequenching of FAM was monitored at 37° C. (Tecan). Fluorescence change at 30 minutes was reported. For recombinant protease assays, enzyme was added to the substrates in enzyme-specific buffer (MMP7 & 9 buffer: 50 mM Tris, 150 mM NaCl, 5 mM CaCl2), […], pH 7.5; Thrombin: PBS; NE: 100 mM HEPES, 500 mM NaCl, 0.05% Tween 20) in a 384 well plate for time-lapse fluorimetry to measure dequenching at 37° C. (Tecan).

[1] = tested on: Kras and p53 mutant lung adenocarcinoma (KP mice); experiment: urinary ABN readout and random forest classification in KP lung adenocarcinoma model; format: in vivo
Method: To characterize ABN performance in vivo, 14 protease-sensitive ABNs were administered to KP mice and healthy, age and sex-matched controls at 5, 7.5 and 10.5 weeks after tumor initiation. Mouse bladders were voided one hour after intrapulmonary delivery and all fresh urine produced during the subsequent hour (from 60-120 minutes after administration) was pooled and collected. LC-MS/MS was performed and peak area ratios (defined as peak area of urinary reporter divided by peak area of spiked-in internal standard) of protease-sensitive reporters were mean-normalized within each sample to reduce mouse-to-mouse variation.
A random forest classifier was then sought to be built to enable prospective diagnosis of lung cancer in KP mice. Random forest is a high-performance classifier, applicable to a wide variety of classification tasks, that generates a collection of decision trees (a “forest”) that are sampled to produce classification results (Breiman, Machine Learning 45, 5-32, 2001). A random forest classifier was trained using 50% of control mice at 5 weeks, 7.5 weeks and 10.5 weeks, as well as 50% of KP mice at 7.5 weeks (FIG. 6A). The classifier assigned a probability that each mouse belonged to either the KP cohort or the healthy control cohort (FIG. 6B, “Training” panel), achieving perfect separation of control and KP mice. The classifier was then sought to be tested on an independent validation cohort consisting of classifier-naive KP mice at 5 weeks, 7.5 weeks and 10.5 weeks post-induction, as well as the remaining control mice from each time point.
Male B6/SV129 Kras^LSL-G12D/+; Trp53^fl/fl (KP) mice between 18 and 30 weeks old were used for lung adenocarcinoma experiments. Tumors were initiated, as described previously (DuPage et al., Nat Protoc 4, 1064-1072 (2009)), by the intratracheal administration of 50 μL of adenovirus-SPC-Cre (2.5×10^8 PFU in Opti-MEM with 10 mM CaCl2)) under isoflurane anesthesia. […] Tumor growth was monitored by micro computed tomography (microCT) imaging (General Electric) and was scored by a blinded radiation oncologist using MicroView (Parallax Innovations) (Table 4). Tumor volumes were calculated by using the ROI sphere/elliptical tool.
ABN constructs (GluFib-Substrate-PEG-840 kDa) for urinary experiments were synthesized by CPC Scientific (Sunnyvale, CA). ABNs were dosed (50 μL total volume, 20 μM concentration per ABN) by intratracheal intubation, as described above. Bladders were voided 60 minutes after ABN administration and all urine produced 60-120 min after ABN administration was collected using custom tubes in which the animals rest upon 96-well plates that capture urine. Urine was pooled and frozen at −80° C. until analysis by LC-MS/MS.
Liquid chromatography/tandem mass spectrometry was performed by Syneos Health (Princeton, NJ) using a Sciex 6500 triple quadrupole instrument. Briefly, urine samples were treated with UV irradiation to photocleave the ANP linker and liberate the Glu-Fib reporter from residual peptide fragments. Samples were extracted by solid-phase extraction and analyzed by multiple reaction monitoring by LC-MS/MS to quantify concentration of each Glu-Fib mass variant. Analyte quantities were normalized to a spiked-in internal standard and concentrations were calculated from a standard curve using peak area ratio (PAR) to the internal standard. Mean normalization was performed on PAR values to account for mouse-to-mouse differences in ABN inhalation efficiency and urine concentration.
Principal component analysis (PCA) was performed on mean normalized PAR values in the R statistical environment (Team, R.C. R, R Foundation for Statistical Computing, Vienna, Austria, 2017) using the prcomp function. Binary classification was performed using the Caret package (Kuhn, M. caret: Classification and Regression Training. (2017)) in the R statistical environment). […]

[2] = tested on: 15 proteases in the LUAD protease panel; experiment: in vitro recombinant protease screen of FRET-paired substrates; format: biochemical; conditions: fluorescence fold change at 45 minutes; 1 μM substrate, 12.5 nM recombinant enzyme; MP metallo-, SP serine, AP aspartic protease
From the text: Hundreds of peptide sequences have been previously designed and validated as protease substrates, leveraging known catalytic specificities of different protease families, published datasets and substrate sequences in databases like cutDB and MEROPS (Igarashi et al., Nucleic Acids Res 35, D546-549, 2007; Rawlings et al., Nucleic Acids Res 46, D624-D632, 2018). Fourteen of these substrates were nominated in an effort to cover the specificity profiles of metallo-, serine and aspartic endoproteases, all of which were included in the LUAD protease panel, and the catalytic activity of each protease-substrate pair was characterized. Quenched probes that incorporated the 14 peptide substrates were synthesized such that they fluoresce upon proteolytic cleavage to enable real-time monitoring of protease activity in vitro (FIG. 3A and Table 2). Each probe was incubated with each protease in the panel and fluorescence was monitored over 45 minutes. Shown are sample kinetic plots monitoring dequenching of the 14 FRET-paired probes when incubated with (above) and without (below) recombinant matrix metalloproteinase 3 (MMP3) (FIG. 3B). […] See also FIG. 19.
Fluorogenic protease substrates were synthesized by CPC Scientific. Recombinant proteases were purchased from Enzo Life Sciences, R&D Systems and Haematologic Technologies. For recombinant protease assays, fluorogenic substrates PPQ1-14 (1 μM final concentration) were incubated in 30 μL final volume in appropriate enzyme buffer, according to manufacturer specifications, with 12.5 nM recombinant enzyme at 37° C. (FIG. 3). Proteolytic cleavage of substrates was quantified by increases in fluorescence over time by fluorimeter (Tecan Infinite M200 Pro). Enzyme cleavage rates were quantified as relative fluorescence increase over time normalized to fluorescence before addition of protease. Hierarchical clustering was performed in GENE-E, using fluorescence fold changes at 45 minutes.

[3] = tested on: P. aeruginosa strain PA01 lung infection; experiment: histology and immunofluorescence of lung sections after antibiotic treatment; format: in vivo, mice
Method: To test whether inflammation remained after antibiotic therapy, histological and immunofluorescence analysis of lung sections were performed from infected and treated mice. […] The robust diagnostic capability of ELA to identify infection but poor ability to monitor treatment, paired with the robust ability for LAS to specifically monitor treatment highlights the importance of multiplexing and measuring both host and pathogen factors.
Individual responses to antimicrobial treatment can be highly variable, dependent upon the strain of pathogen and the presence of antibiotic resistance, and current clinical tests take 24-72 hours to identify antibiotic susceptibility (Caliendo et al., Clin Infect Dis, 57, S139, 2013). In addition, current clinical tests used to visualize lung infections (e.g., chest X-ray and computed tomography) are often unable to distinguish active infections from those that have been adequately treated until several weeks after antibiotic therapy is complete, because the airspace opacifications characteristic of pneumonia remain apparent on routine radiography screens (Bruns et al., J Gen Intern Med, 25, 203, 2010). Therefore, the ability of the infection-tracking ABNs to identify successful versus insufficient treatment on an acute time-scale shortly after therapeutic initiation was sought to be evaluated. Only 5 hours after establishing lung infections with PA01, antibiotic treatment was initiated with either ciprofloxacin (efficacious against P. aeruginosa) or doxycycline (ineffective against gram-negative bacteria including P. aeruginosa) (FIG. 13A). The following day, multiplexed LAS-E and ELA-E ABNs were administered and urine was collected. […] The persistent Pseudomonas immunostaining observed following ciprofloxacin treatment might be derived from residual Pseudomonas antigens remaining from lysed bacteria that had not yet been cleared by the immune system. Alternatively, the reduced LAS sensor reading in these treated mice could reflect a suppression of LasA secretion from bacteria as they are killed by the potent antibiotic.
All animal studies were approved by Massachusetts Institute of Technology's Committee on Animal Care. For infection studies, 5-7 week old female CD-1 mice were innoculated intratracheally with 1.25×10^6 CFU of P. aeruginosa strain PA01 in 50 μL of PBS. Bacteria were cultured overnight in LB broth, then subcultured and grown to log phase (OD600≈0.5). Bacteria were pelleted, washed with sterile PBS, and then resuspended to the requisite concentration for intratracheal administration. Mice were administered buprenorphine and meloxicam several hours after infection. For antibiotic treatment studies, mice were injected intraperitoneally with 40 mg/kg ciprofloxacin or 30 mg/kg doxycycline twice per day for up to 6 days.
Animals were perfused with PBS followed by 10% formalin solution. The lungs were resected and fixed in formalin before paraffin embedding and sectioning. […] Fluorescence images were acquired on a Perkin Elmer Pannoramic250. Quantification of neutrophil signal was completed by capturing 3-5 representative fields from each stained lung section and counting positive cells. Quantification of pseudomonas signal was completed by capturing 3-5 representative fields from each stained lung section and measuring total positive area after uniform thresholding of each single-channel fluorescence image (ImageJ).

[4] = 24 hours post-infection, after 19 hours of antibiotic therapy

Molecule | urinary reporter enrichment relative to healthy controls ([1]; KP7.5 wk urine) | urinary reporter enrichment relative to healthy controls ([1]; KP10.5 wk urine) | protease class(es) cleaving the substrate in vitro [2] | other results
[Cl-].[Cl-].[Zn+2] [ZnCl2, reference compound] | – | – | – | effect on cleavage signal of LAS-Q and ELA-Q (PA01 supernatant): suppressed the cleavage signal
PP03: ABN: reporter e(+3G)(+1V)ndneeGFFs(+4A)r, ANP, substrate PVPLSLVM, nanocarrier PEG8-40 kDa (chain 1 [dE]G[+1V][dN][dD][dN][dE][dE]GFF[dS][+4A][dR]; not fully specified (some residues); printed as PP03: ABN: reporter e(+3G)(+1V)ndneeGFFs(+4A)r, ANP, substrate PVPLSLVM, nanocarrier PEG8-40 kDa; also: ANP photolabile linker, PEG8-40 kDa nanocarrier, linkage of reporter, ANP, substrate and carrier not given here) | enriched | enriched | metalloproteases or both metalloproteases and aspartic proteases | –
PP11: ABN: reporter e(+3G)(+1V)ndnee(+2G)(+10F)Fs(+4A)r, ANP, substrate SGSKIIGGG, nanocarrier PEG8-40 kDa (chain 1 [dE][G+3][V+1][dN][dD][dN][dE][dE][G+2][F+10]F[dS][A+4][dR]; reading uncertain; also: ANP photolabile linker, attachment not given here, PEG8-40 kDa nanocarrier, attachment not given here, how reporter and substrate are joined not given here, printed as PP11: ABN: reporter e(+3G)(+1V)ndnee(+2G)(+10F)Fs(+4A)r, ANP, substrate SGSKIIGGG, nanocarrier PEG8-40 kDa) | – | most significantly enriched | serine protease-sensitive; also recorded: only by serine proteases | –
PP02: ABN: reporter eG(+6V)ndneeGF(+1F)s(+1A)r, ANP, substrate PVGLIG, nanocarrier PEG8-40 kDa (chain 1 EGVNDNEEGFFSAR; not fully specified (some residues); printed as PP02: ABN: reporter eG(+6V)ndneeGF(+1F)s(+1A)r, ANP, substrate PVGLIG, nanocarrier PEG8-40 kDa) | enriched | enriched | metalloproteases or both metalloproteases and aspartic proteases | –
O=C(O)c1cn(C2CC2)c2cc(N3CCNCC3)c(F)cc2c1=O [ciprofloxacin] | – | – | – | decrease of Pseudomonas immunofluorescent signal compared to the doxycycline-treated group [3, 4]: ~60%; lung inflammation and neutrophils [3, 4]: marked lung inflammation and elevated neutrophils; Pseudomonas immunofluorescence signal in lungs of infected mice relative to uninfected or ciprofloxacin-treated mice ([3]; 4 day course of ciprofloxacin, 40 mg/kg intraperitoneally twice per day): 7-9 fold; Pseudomonas in lung sections after treatment ([3]; histology and immunofluorescent staining after ciprofloxacin course): no Pseudomonas; decrease in neutrophil count in lungs after antibiotic treatment ([3]; relative to infected mice): ~30%
